# Measured values as given in patent publication US8222260B2, “Substituted 6-anilinopurine derivatives as inhibitors of cytokinin oxidase/dehydrogenase and preparations containing these derivatives” (Univerzita Palackego V Olomouci, priority 2007, dated 2012).
# Tests used:
# [1] = tested on: T-lymphoblastic leukemia cell line CEM; assay: Calcein AM cytotoxicity assay; type: cell-based, human; settings: Homo sapiens, 72 hours
# [2] = tested on: breast carcinoma cell line MCF-7; assay: Calcein AM cytotoxicity assay; type: cell-based, human; settings: Homo sapiens, MCF7, 72 hours
# [3] = tested on: osteosarcoma cell line HOS; assay: Calcein AM cytotoxicity assay; type: cell-based, human; settings: Homo sapiens, 72 hours
# Procedure, shortened: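 Cells seeded at 2.500-30.000 per well, pre-incubated 24 h, then exposed 72 h at 37 °C to six 3-fold dilutions (top 166.6 μM), in triplicate. Calcein AM added to 1 μg/ml for 1 h; fluorescence gives growth inhibition, GI50 taken from dose-response curves.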
# NIH-3T3 (fibroblasts) = assay: Calcein AM cytotoxicity assay; type: cell-based, Mouse; settings: Mus musculus, NIH3T3, 72 hours
# Procedure, shortened: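 Cells seeded at 2.500-30.000 per well, pre-incubated 24 hours, then exposed to compound (usually six 3-fold dilutions, triplicates) for 72 hours at 37° C, 5% CO2; NIH-3T3 grown in DMEM with 10% fetal calf serum. Calcein AM added at 1 μg/ml final, fluorescence read after 1 hour. GI calculated as blank-corrected fluorescence relative to untreated control.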
# [4] = tested on: Amaranthus caudatus cotyledon/hypocotyl explants; assay: Amaranthus bioassay (betacyanin content); type: cell-based, Amaranthus caudatus var. atropurpurea; settings: at the concentration with highest activity, relative to 10^−5 M kinetin
# Procedure, shortened: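 Etiolated A. caudatus cotyledon/hypocotyl explants (72 h seedlings, roots removed) incubated 48 h at 25 °C in darkness on medium with phosphate buffer pH 6.8, tyrosine and test compound. Betacyanin extracted in acetic acid, quantified as A537−A620.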
# [5] = tested on: cytokinin-dependent tobacco callus Nicotiana tabacum L. cv. Wisconsin 38; assay: Tobacco callus biotest (plant cell division); type: cell-based; settings: at the concentration with highest activity, relative to 10^−5 M kinetin
SMILES,GI50 [1] [µM],GI50 [2] [µM],GI50 [3] [µM],GI50 (NIH-3T3 (fibroblasts)) [µM],Activity (%) [10^−5 mol · l^−1 K = 100%] [4] [%],Activity (%) [10^−5 mol · l^−1 K = 100%] [5] [%]
"Clc1nc(Nc2ccccc2)c2[nH]cnc2n1 [Compound 1, 2-Chloro-6-anilinopurine]",> 167,> 167,> 167,> 167,–,–
"Clc1cccc(Nc2nc(Cl)nc3nc[nH]c23)c1 [Compound 3, 2-Chloro-6-(3-chloroanilino)purine]",> 167,> 167,> 167,> 167,166,110
Clc1ccc(Nc2nc(Cl)nc3[nH]cnc23)cc1 [Compound 4],> 167,> 167,> 167,> 167,107,102
"Fc1cccc(Nc2nc(Cl)nc3nc[nH]c23)c1 [Compound 6, 2-Chloro-6-(3-fluoroanilino)purine]",–,> 167,> 167,> 167,120,119.7
"Oc1cccc(Nc2nc(Cl)nc3nc[nH]c23)c1 [Compound 9, 2-Chloro-6-(3-hydroxyanilino)purine]",–,> 167,> 167,> 167,115.4,116.2
"COc1cccc(Nc2nc(Cl)nc3nc[nH]c23)c1 [Compound 12, 2-Chloro-6-(3-methoxyanilino)purine]",–,> 167,> 167,> 167,132.3,122
Fc1nc(Nc2ccccc2)c2nc[nH]c2n1 [Compound 40],> 167,> 167,> 167,> 167,107,108.1
Fc1nc(Nc2cccc(Cl)c2)c2nc[nH]c2n1 [Compound 42],> 167,> 167,> 167,> 167,121,121
Oc1cccc(Nc2nc(F)nc3[nH]cnc23)c1 [Compound 48],–,> 167,> 167,> 167,100.3,104.2
"COc1cccc(Nc2nc(F)nc3nc[nH]c23)c1 [Compound 51, 2-Fluoro-6-(3-methoxyanilino)purine]",–,> 167,> 167,> 167,117.2,120.5
Nc1nc(Nc2cccc(Cl)c2)c2nc[nH]c2n1 [Compound 66],–,> 167,> 167,> 167,122,–
Nc1nc(Nc2cccc(O)c2)c2nc[nH]c2n1 [Compound 72],–,> 167,> 167,> 167,119.8,–
Fc1cccc(Nc2nc(S)nc3[nH]cnc23)c1 [Compound 83],–,> 167,> 167,> 167,133.5,102.5
"c1coc(CNc2ncnc3nc[nH]c23)c1 [Kinetin, 6-furfurylaminopurine, reference compound]",155,> 167,> 167,> 167,100,100
